Source: article PMC7827406, “Structure–Activity Relationship (SAR) Study of Spautin-1 to Entail the Discovery of Novel NEK4 Inhibitors” (International Journal of Molecular Sciences, 2021)
Where two headings read alike, the source gives them in different places.

How the values were obtained:
Assay in all cases: biochemical
Set-up in all cases: Eurofins KinaseProfiler full panel at Km ATP, residual kinase activity (%) relative to DMSO
[1] = molecular target: T1, IKKβ(h) (Homo sapiens, UniProt O14920)
T1 construct: gene IKBKB
T1 sequence (O14920 1-756): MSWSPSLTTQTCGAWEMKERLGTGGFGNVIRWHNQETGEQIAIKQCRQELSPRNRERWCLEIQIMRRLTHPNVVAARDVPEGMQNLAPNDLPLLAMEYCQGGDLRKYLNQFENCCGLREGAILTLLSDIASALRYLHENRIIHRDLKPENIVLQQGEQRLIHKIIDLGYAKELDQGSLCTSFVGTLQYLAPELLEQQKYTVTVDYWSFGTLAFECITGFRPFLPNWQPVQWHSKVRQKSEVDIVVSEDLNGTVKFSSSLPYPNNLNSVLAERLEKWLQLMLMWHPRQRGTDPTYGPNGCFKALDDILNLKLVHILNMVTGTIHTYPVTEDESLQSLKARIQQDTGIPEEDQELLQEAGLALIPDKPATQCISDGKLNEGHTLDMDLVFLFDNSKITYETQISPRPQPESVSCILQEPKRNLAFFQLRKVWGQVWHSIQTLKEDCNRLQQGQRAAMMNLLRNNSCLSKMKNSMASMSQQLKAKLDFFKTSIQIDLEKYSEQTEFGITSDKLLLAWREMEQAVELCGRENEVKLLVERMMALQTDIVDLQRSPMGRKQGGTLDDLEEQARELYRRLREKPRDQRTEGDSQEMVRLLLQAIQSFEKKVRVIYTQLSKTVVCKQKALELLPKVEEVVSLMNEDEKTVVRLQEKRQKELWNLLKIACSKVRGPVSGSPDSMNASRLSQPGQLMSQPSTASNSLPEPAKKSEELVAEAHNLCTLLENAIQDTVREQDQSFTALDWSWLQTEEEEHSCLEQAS
Summary of the method: (§1)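 Radiometric kinase activity assays were run with ATP at Km and compounds at 10 µM, and remaining activity (%) was reported. A separate competitive binding screen measured DNA-tagged kinase displaced from immobilized active-site ligands by qPCR, giving percent kinase still bound at 10 µM compound in DMSO.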

[2] = molecular target: T2, DCAMKL2(h) (Homo sapiens, UniProt Q8N568)
T2 construct: gene DCLK2
T2 sequence (Q8N568 1-766): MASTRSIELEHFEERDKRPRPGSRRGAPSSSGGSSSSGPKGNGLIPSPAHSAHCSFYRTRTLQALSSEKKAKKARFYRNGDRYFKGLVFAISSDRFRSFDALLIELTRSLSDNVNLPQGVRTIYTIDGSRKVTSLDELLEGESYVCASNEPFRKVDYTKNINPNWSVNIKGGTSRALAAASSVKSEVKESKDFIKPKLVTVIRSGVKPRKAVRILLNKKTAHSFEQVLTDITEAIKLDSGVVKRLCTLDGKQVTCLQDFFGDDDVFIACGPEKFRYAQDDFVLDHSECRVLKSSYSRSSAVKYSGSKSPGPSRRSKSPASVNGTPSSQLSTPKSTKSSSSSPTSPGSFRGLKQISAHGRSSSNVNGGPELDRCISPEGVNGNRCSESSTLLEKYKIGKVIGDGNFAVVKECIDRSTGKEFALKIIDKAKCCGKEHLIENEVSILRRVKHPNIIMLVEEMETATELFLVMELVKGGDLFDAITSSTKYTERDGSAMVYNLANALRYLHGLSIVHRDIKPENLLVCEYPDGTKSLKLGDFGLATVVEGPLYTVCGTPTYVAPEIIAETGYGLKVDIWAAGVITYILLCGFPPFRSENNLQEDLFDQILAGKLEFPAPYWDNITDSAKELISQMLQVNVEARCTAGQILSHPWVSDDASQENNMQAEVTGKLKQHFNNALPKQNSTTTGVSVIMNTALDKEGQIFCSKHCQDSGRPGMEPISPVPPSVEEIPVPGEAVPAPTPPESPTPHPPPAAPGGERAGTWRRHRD
Summary of the method: as §1

[3] = molecular target: STK25(h) (Homo sapiens, UniProt O00506)
Summary of the method: as §1

[4] = molecular target: WNK4(h) (Homo sapiens, UniProt Q96J92)
Chain of WNK4(h) (Q96J92 whole entry): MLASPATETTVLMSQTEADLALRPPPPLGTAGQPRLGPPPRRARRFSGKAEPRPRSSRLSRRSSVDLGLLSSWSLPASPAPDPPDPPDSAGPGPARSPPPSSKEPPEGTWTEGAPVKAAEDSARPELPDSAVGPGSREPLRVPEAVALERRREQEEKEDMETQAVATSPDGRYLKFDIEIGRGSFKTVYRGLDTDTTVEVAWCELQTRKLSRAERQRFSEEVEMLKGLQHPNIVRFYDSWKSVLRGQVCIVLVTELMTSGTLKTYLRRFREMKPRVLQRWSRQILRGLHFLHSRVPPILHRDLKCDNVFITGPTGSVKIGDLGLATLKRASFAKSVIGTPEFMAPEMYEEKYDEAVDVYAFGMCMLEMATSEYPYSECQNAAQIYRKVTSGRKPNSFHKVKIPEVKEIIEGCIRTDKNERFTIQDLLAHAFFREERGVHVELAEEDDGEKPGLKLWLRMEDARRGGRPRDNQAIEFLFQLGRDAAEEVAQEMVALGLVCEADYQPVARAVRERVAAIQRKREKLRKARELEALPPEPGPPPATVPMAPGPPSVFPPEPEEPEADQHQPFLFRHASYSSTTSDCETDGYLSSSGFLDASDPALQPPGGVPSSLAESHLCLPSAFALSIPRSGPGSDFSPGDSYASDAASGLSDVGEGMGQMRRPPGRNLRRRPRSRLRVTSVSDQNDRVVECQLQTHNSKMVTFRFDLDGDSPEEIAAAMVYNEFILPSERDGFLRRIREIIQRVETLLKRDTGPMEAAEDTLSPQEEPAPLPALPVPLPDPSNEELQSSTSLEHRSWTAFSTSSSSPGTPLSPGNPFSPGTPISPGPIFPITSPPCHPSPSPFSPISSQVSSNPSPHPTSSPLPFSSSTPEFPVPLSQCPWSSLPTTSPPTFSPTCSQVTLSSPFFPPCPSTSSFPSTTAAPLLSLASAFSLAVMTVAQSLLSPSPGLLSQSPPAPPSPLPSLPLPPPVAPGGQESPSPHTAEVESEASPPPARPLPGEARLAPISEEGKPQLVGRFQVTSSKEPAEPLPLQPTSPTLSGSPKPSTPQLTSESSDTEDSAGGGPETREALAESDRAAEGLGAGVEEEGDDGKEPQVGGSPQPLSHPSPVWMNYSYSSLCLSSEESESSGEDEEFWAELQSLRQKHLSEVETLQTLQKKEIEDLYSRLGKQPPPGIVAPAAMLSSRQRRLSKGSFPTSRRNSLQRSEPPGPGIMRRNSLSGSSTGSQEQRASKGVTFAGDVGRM
Summary of the method: as §1

[5] = molecular target: EphA4(h) (Homo sapiens, UniProt P54764)
Chain of EphA4(h) (P54764 whole entry): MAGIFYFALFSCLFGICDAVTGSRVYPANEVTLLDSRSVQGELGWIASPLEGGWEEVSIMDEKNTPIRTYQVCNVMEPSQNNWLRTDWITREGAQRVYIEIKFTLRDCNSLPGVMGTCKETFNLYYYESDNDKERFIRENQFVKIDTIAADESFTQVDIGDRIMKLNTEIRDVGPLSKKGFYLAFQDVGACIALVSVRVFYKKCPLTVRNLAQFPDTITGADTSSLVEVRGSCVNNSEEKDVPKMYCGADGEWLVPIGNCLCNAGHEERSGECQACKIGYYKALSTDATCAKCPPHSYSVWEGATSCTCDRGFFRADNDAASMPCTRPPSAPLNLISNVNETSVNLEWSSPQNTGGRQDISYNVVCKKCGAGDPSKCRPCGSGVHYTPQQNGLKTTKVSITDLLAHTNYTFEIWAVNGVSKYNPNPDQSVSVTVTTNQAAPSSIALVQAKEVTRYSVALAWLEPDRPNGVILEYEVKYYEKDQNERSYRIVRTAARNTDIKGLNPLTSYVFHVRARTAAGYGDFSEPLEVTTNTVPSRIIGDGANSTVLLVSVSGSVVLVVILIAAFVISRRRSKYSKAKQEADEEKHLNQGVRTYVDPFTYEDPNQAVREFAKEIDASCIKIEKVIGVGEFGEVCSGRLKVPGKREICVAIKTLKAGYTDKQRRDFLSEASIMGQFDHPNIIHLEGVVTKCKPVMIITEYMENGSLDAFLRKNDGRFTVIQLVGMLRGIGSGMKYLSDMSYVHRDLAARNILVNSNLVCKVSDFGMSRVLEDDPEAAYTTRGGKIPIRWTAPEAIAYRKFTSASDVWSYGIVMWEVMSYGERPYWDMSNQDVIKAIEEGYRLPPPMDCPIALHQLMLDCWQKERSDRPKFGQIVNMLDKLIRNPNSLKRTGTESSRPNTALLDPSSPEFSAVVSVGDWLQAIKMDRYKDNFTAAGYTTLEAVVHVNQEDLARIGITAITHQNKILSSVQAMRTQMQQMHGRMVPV
Summary of the method: as §1

[6] = molecular target: CaMKK1(h) (Homo sapiens, UniProt Q8N5S9)
Chain of CaMKK1(h) (Q8N5S9 whole entry): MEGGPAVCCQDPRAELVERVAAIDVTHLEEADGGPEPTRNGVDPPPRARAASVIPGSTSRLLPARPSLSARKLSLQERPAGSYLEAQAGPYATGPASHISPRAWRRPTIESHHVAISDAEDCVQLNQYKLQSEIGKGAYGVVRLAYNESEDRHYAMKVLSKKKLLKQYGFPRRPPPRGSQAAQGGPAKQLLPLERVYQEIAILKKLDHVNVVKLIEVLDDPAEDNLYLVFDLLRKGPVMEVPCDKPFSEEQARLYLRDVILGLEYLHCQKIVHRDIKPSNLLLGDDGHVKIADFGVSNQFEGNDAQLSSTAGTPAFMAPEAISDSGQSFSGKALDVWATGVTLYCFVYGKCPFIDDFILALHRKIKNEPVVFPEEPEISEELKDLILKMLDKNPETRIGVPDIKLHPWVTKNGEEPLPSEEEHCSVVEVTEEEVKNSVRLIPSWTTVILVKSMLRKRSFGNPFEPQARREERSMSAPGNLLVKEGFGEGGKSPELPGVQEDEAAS
Summary of the method: as §1

[7] = molecular target: T3, Ron(h) (Homo sapiens, UniProt Q04912)
T3 construct: gene MST1R
T3 sequence (Q04912 whole entry): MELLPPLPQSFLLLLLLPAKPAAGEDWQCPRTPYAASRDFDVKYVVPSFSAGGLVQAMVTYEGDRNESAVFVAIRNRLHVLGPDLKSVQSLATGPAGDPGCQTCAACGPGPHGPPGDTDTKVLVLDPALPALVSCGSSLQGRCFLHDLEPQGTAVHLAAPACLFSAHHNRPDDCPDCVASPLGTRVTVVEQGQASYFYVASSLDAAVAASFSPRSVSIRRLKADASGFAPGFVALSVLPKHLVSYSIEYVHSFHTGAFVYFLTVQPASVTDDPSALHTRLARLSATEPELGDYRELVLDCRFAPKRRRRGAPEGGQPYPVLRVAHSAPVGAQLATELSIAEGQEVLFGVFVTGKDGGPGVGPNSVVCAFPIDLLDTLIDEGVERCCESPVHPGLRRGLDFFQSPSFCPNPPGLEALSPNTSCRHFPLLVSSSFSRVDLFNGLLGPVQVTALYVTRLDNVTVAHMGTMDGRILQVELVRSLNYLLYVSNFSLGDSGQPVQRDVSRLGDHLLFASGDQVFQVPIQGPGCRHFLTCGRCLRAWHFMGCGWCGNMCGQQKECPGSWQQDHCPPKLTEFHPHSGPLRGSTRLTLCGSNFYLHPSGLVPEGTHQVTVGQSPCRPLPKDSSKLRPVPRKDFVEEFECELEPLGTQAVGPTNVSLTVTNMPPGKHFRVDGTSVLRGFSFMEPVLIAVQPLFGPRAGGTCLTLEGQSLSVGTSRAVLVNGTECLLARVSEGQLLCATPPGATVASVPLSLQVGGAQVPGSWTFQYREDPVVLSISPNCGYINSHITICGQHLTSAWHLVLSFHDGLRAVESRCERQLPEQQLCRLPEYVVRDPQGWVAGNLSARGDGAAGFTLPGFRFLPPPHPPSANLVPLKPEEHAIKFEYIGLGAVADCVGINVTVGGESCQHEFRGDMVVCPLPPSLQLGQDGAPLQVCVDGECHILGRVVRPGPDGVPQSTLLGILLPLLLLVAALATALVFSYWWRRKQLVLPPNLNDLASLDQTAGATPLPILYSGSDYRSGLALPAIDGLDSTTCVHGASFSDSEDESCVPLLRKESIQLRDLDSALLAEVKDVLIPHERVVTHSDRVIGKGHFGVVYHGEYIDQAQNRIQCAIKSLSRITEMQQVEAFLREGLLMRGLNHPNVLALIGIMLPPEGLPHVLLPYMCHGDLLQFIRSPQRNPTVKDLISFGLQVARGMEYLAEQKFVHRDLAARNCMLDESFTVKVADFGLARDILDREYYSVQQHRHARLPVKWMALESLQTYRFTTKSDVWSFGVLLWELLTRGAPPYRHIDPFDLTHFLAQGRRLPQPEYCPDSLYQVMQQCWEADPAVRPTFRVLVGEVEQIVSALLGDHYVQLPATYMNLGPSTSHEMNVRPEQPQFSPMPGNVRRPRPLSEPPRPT
Summary of the method: as §1

[8] = molecular target: T4, PAR-1Bα(h) (Homo sapiens, UniProt Q7KZI7)
T4 construct: gene MARK2
T4 sequence (Q7KZI7 whole entry): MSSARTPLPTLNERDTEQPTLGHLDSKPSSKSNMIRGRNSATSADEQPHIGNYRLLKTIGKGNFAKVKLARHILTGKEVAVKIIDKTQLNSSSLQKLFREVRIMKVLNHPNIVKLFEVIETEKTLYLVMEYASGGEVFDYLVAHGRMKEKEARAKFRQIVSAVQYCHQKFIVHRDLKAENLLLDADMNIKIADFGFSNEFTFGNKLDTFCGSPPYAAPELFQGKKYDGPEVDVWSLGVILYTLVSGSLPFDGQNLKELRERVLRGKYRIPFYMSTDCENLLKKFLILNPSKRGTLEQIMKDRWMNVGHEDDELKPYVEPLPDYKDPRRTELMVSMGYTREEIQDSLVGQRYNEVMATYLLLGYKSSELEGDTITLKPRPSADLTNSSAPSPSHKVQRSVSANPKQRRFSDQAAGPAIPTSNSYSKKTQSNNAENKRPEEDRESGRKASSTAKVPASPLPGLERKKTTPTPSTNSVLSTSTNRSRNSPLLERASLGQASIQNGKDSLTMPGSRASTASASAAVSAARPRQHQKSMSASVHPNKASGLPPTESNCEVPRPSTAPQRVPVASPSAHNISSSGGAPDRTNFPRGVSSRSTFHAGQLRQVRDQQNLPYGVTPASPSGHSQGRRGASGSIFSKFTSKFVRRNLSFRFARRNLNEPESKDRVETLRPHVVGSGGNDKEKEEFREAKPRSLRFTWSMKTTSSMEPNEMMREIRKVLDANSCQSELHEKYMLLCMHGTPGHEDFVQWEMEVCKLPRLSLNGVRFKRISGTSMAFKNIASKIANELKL
Summary of the method: as §1

[9] = molecular target: TLK2(h) (Homo sapiens, UniProt Q86UE8)
Summary of the method: as §1

[10] = read-out: Residual activity (%) Spautin-1 5aa
[11] = read-out: Residual activity (%) 5as
[12] = read-out: Residual activity (%) 5at
[13] = read-out: Residual activity (%) 5ay

`Fc1ccc(CNc2ncnc3ccc(F)cc23)cc1` [5aa, 6-Fluoro-N-(4-fluorobenzyl)-4-Quinazolinamine] was tested, and the remaining activity at 10 µM [1, 10] was 106%, the remaining activity at 10 µM [2, 10] was 81% and the remaining activity at 10 µM [3, 10] was 114%. The remaining activity at 10 µM [4, 10] was 105%, the remaining activity at 10 µM [5, 10] was 89% and the remaining activity at 10 µM [6, 10] was 96%. For the same molecule, the remaining activity at 10 µM [7, 10] was 98%, the remaining activity at 10 µM [8, 10] was 84% and the remaining activity at 10 µM [9, 10] was 99%.
With `Fc1ccc(CCNc2ncnc3ccc(F)cc23)cc1` [5as, 6-Fluoro-N-[2-(4-Fluorophenyl)Ethyl]-4-Quinazolinamine] the remaining activity at 10 µM [1, 11] was 110%, the remaining activity at 10 µM [2, 11] was 64% and the remaining activity at 10 µM [3, 11] was 112%. It also gave a remaining activity at 10 µM [4, 11] of 94%, a remaining activity at 10 µM [5, 11] of 83% and a remaining activity at 10 µM [6, 11] of 99%. For the same molecule, the remaining activity at 10 µM [7, 11] was 109%, the remaining activity at 10 µM [8, 11] was 86% and the remaining activity at 10 µM [9, 11] was 98%.
With `Fc1ccc2ncnc(NCCc3ccc(Cl)cc3)c2c1` [5at, N-[2-(4-Chlorophenyl)Ethyl]-6-Fluoro-4-Quinazolinamine] the remaining activity at 10 µM [1, 12] was 98%, the remaining activity at 10 µM [2, 12] was 57% and the remaining activity at 10 µM [3, 12] was 111%. It also gave a remaining activity at 10 µM [4, 12] of 92%, a remaining activity at 10 µM [5, 12] of 80% and a remaining activity at 10 µM [6, 12] of 91%. The remaining activity at 10 µM [7, 12] was 101%, the remaining activity at 10 µM [8, 12] was 101% and the remaining activity at 10 µM [9, 12] was 103%.
In the case of `COc1ccc2ncnc(Nc3cccc(F)c3)c2c1` [5ay, N-(3-Fluorophenyl)-6-Methoxy-4-Quinazolinamine], the remaining activity at 10 µM [1, 13] is reported as 107%, the remaining activity at 10 µM [2, 13] is reported as 80% and the remaining activity at 10 µM [3, 13] is reported as 114%. For the same molecule, the remaining activity at 10 µM [4, 13] was 100%, the remaining activity at 10 µM [5, 13] was 86% and the remaining activity at 10 µM [6, 13] was 90%. It also gave a remaining activity at 10 µM [7, 13] of 88%, a remaining activity at 10 µM [8, 13] of 83% and a remaining activity at 10 µM [9, 13] of 97%.
